Where two headings read alike, the source gives them in different places. Marks after values point to notes of the source that are not given here.

For experiment [1], the system named is Human PDGF-AA. Kind of experiment: FLIPR calcium flux in PASMC (Example 17). The class given is cell-based. The following applies: 3 nM PDGF-AA constant. Here is the method: (§1) Upon reaching 100% confluency within each well, PDGF driven calcium flux was assessed via the FLIPR® Calcium 5 Assay Kit on the FLIPR Tetra System (Molecular Devices) following the manufacturer's protocol. In brief, complete media was replaced with 50 μL assay media (DMEM-0.1% BSA-1× Penicillin/Streptomycin/L-Glutamine). The Calcium 5 dye was then reconstituted in the supplied buffer in the presence of probenecid. […] Human PDGF-AA, PDGF-BB and PDGF-DD serial dilutions and inhibitory constants were generated on separate dosing plates. A 0.5 nM concentration of PDGF-BB, 1 nM concentration of PDGF-DD and a 3 nM concentration of PDGF-AA were chosen as constants to assess antibody and small molecule inhibition. […] Antibodies were pre-incubated with PDGF proteins for 30 minutes before addition onto the cells via the FLIPR tetra system. […] These calcium traces were analyzed for their Max-Min values using the SoftMax Pro Software (Molecular Devices).
For orientation: Calcium flux is commonly read through the fluorescence of an indicator in the cells.

The test system of experiment [2] is Human PDGF-DD. The following applies: read-out: IC50 Calcium Flux, PDGF-DD; PASMC; 1 nM PDGF-DD constant. Here is the method:
as §1

The test system of experiment [3] is PDGF-AA. The settings on record: read-out: IC50 Proliferation, PDGF-AA; PASMC; IncuCyte cell confluence at day 6.
Experimental: (§2) For calcium flux and proliferation assays, primary Human Pulmonary Smooth Muscle Cells were seeded onto 96-well assay plates at a cell density of 10,000/well and 2,000/well respectively. The smooth muscle cells were cultured in supplier recommended smooth muscle media in a humidified incubator at 37° C. in 5% CO2.
(§3) Proliferation was assessed via the IncuCyte live cell imaging system (Essen BioScience). Following overnight plating, the complete media was replaced with serum free smooth muscle media supplemented with 0.1% BSA. […] Plates were imaged every 3 hours over the course of 7 days and proliferation was determined by measuring cell confluence in the well at day 6 via the IncuCyte Base Analysis software (Sartorius).
Experiment [4] concerns PDGF-DD. The following applies: read-out: IC50 Proliferation, PDGF-DD; PASMC; IncuCyte cell confluence at day 6.
Experimental: as §2, §3
For experiment [5], the target named is T1, PDGF-BB (Homo sapiens, UniProt P01127). Kind of experiment: FLIPR calcium flux in PASMC (Example 17). In kind it is cell-based. Also noted: purchased R&D Systems 220-GMP. How it is done: as §1
T1 sequence (P01127 82-190 limits assumed): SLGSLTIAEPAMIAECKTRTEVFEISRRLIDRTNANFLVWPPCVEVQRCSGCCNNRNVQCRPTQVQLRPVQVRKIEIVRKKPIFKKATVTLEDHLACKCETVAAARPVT
The target in experiment [6] is T1, PDGF-BB. Kind of experiment: IncuCyte proliferation of PASMC (Example 17). In kind it is cell-based. On the set-up: purchased R&D Systems 220-GMP. The following applies: IncuCyte cell confluence at day 6.
Experimental: as §2, §3
Experiment [7] deals with hypoxia/sugen PAH mice. Kind of experiment: Hypoxia/Sugen PAH mice, therapeutic treatment (Study 1). In kind it is in vivo, mouse. The settings on record: dose mg/kg: H4H13145P 25, Macitentan 30, REGN2176 25. How it is done: For the first study, 14 to 16 weeks old male humanized PDGFRβ^hu-hu mice, (MAID #1639) were used. Mice were separated into treatment groups by weight such that starting body weights were similar among different groups. […] Mice in hypoxia chamber were given VEGF receptor inhibitor Sugen5146 at 20 mg/kg subcutaneously once a week for 6 weeks. The mice were administered antibodies starting on day 21 for 3 weeks as outlined in Table 11. […] Mice were anesthetized with isoflurane and were kept at approximately 37° C. using a heated platform (Heated Hard Pad 1, Braintree Scientific) and circulating heated water pump (T/Pump Classic, Gaymar Industries). The neck area for each mouse was prepared for surgery by depilating over the right common Carotid artery and right Jugular vein. An incision was made, and the right Jugular vein was isolated with care as to not damage the Carotid artery and/or the Vagus nerve. […] The catheter was connected to pressure/volume instrument (MPVS-300, Millar Instruments, Inc.) that measured heart rate as well as both diastolic and systolic right ventricular pressures. […] The parameters analyzed were right ventricular systolic pressures (RVSP), heart rate (HR) and rate of right ventricular pressure rise (dP/dt max). […] RV hypertrophy was calculated by Fulton index as the weight ratio of RV and (LV+septum). […]

In experiment [8] the test system is hypoxia/sugen PAH mice. In kind it is in vivo, mouse. The settings on record: Hypoxia/Sugen Mice - Therapeutic dose response; dose mg/kg: H4H13145P 1, Macitentan 30, REGN2176 25. Here is the method:
For the second study (Study 2), 12 to 14 weeks old male C57/BL mice, (Taconic) were used for the studies. Mice were separated into treatment groups by weight such that starting body weights were similar among different groups. […] Mice in hypoxia chamber were given VEGF receptor inhibitor Sugen5146 at 20 mg/kg subcutaneously once a week for 6 weeks. The mice were administered antibodies starting on day 21 for 3 weeks as outlined in Table 12. By the end of week 6, right ventricular systolic pressure (RVSP) was measured by right heart catheterization and RV hypertrophy was calculated by Fulton index as the weight ratio of RV and (LV+septum). […]
Mice were anesthetized with isoflurane and were kept at approximately 37° C. using a heated platform (Heated Hard Pad 1, Braintree Scientific) and circulating heated water pump (T/Pump Classic, Gaymar Industries). […] The catheter was connected to pressure/volume instrument (MPVS-300, Millar Instruments, Inc.) that measured heart rate as well as both diastolic and systolic right ventricular pressures. […] Readings were quantified from a 60 second interval of the pressure tracing (following a 2 minute period of recording to allow for pressure stabilization). The parameters analyzed were right ventricular systolic pressures (RVSP), heart rate (HR) and rate of right ventricular pressure rise (dP/dt max). […]

For experiment [9], the system named is monocrotaline rats. Kind of experiment: 4 weeks Monocrotaline PAH rats, preventive treatment (Example 10 study 1). In kind it is in vivo, rat. Here is the method:
Six to seven weeks old male Sprague Dawley rats were used. Rats were separated into treatment groups such that body weights were similar among different groups. […] Standard of care group was orally administered macitentan at 30 mg/kg daily for 28 days. At day one, rats were subcutaneously administered either 40 mg/kg of monocrotaline or 5 mL/kg of saline. By the end of day 28, right ventricular systolic pressure (RVSP) was measured by right heart catheterization and RV hypertrophy was calculated by Fulton index as the weight ratio of RV and (LV+septum). In study 2, rats were subcutaneously administered either 60 mg/kg of monocrotaline or 5 mL/kg of saline. […] Body weight change from day 0-35 were used for general toxicity assessment and animal mortality was calculated by day 35.
Rats were anesthetized with isoflurane and were kept at approximately 37° C. using a heated platform (Heated Hard Pad 1, Braintree Scientific) and circulating heated water pump (T/Pump Classic, Gaymar Industries). The neck area for each rat was prepared for surgery by depilating over the right common Carotid artery and right Jugular vein. An incision was made and the right Jugular vein was isolated with care as to not damage the Carotid artery and/or the Vagus nerve. A piece of 5-0 silk suture was placed under the isolated Jugular vein to allow for retraction of the vessel cranially, then a 23-gauge needle was used to introduce a hole into the Jugular vein. A pressure catheter (Micro-tip catheter transducer SPR-1000, Millar Instruments, Inc.) was inserted into the opening of the Jugular vein and advanced past the right atrium into the right ventricle. The catheter was connected to pressure/volume instrument (MPVS-300, Millar Instruments, Inc.) that measured heart rate as well as both diastolic and systolic right ventricular pressures. These parameters were digitally acquired using a data acquisition system (PowerLab 4/35, AD Instruments). LabChart Pro 7.0 software (AD Instruments) was used to analyze right ventricular pressures. Readings were quantified from a 60 second interval of the pressure tracing (following a 2 minute period of recording to allow for pressure stabilization). The parameters analyzed were right ventricular systolic pressures (RVSP), heart rate (HR) and rate of right ventricular pressure rise (dP/dt max).
After the in vivo hemodynamic measurements, animals were euthanized by exsanguinations under anesthesia and then RV free wall, left ventricle (LV) and septum tissue were harvested and weighted. RV hypertrophy was calculated by Fulton index as the weight ratio of RV and (LV+septum). Then, RV tissue was saved frozen (−80° C.) for biochemical analyses.

In experiment [10] the test system is monocrotaline rats. The experiment is described as follows: Study #2, 5 weeks Monocrotaline severe PAH rats survival (Example 19). In kind it is in vivo, rat. How it is done:
In order to evaluate the effect of two inhibitory anti-PDGF-B antibodies in the rat monocrotaline model of pulmonary arterial hypertension, 2 studies were performed: study #1 was performed on 4-week Monocrotaline PAH Rats with Preventive Drug Treatment; and study #2 was performed on 5-weeks Monocrotaline Severe PAH Rats Survival with Therapeutic Drug Treatment (Tables 26-27).
Six to seven weeks old male Sprague Dawley rats were used. Rats were separated into treatment groups such that body weights were similar among different groups. […] On day one, rats were subcutaneously administered either 40 mg/kg of monocrotaline or 5 mL/kg or saline as control. On day 28, right ventricular systolic pressure (RVSP) was measured by right heart catheterization and RV hypertrophy was calculated by Fulton index as the weight ratio of RV to (LV+septum). In study #2, rats were subcutaneously administered either 60 mg/kg of monocrotaline or 5 mL/kg of saline. […] Small molecule group was orally administered macitentan at 30 mg/kg daily. Body weight change from day 0-35 were used for general toxicity assessment and animal mortality and median survival time were calculated by day 35.

Where [11] appears, read: Monocrotaline Rat - Prevention, dose mg/kg: H4H13145P 25, Macitentan 30, Sotatercept 25.
Where [12] appears, read: MCT 60 mg/kg rats, treatment from day 14, antibody SC twice per week, Macitentan 30 mg/kg daily gavage.

Regarding `COc1ccc(-c2cncc(N[C@@H](C)c3cccc(NC(=O)c4cncc(C)c4)c3)n2)cc1OC` [Seralutinib], the IC50 in experiment [1] was 0.01 µM; in [2], 0.027 µM; in experiment [3] it was 0.009 µM; in experiment [4], 0.006 µM; in experiment [5] (PASMC, 0.5 nM PDGF-BB constant, read-out: IC50 Calcium Flux, PDGF-BB) it was 0.01 µM; in experiment [5] (range over PDGF-AA, PDGF-DD, PDGF-BB driven calcium flux and proliferation, read-out: IC50 values) it was 0.006 to 0.027 µM. In experiment [6], this compound had an IC50 of 0.006 µM. Further, the inhibition in words result in experiment [5] (PDGF-AA, PDGF-DD and PDGF-BB driven calcium flux and proliferation) is given as “fully inhibited”.
For `Cc1ccc(NC(=O)c2ccc(CN3CCN(C)CC3)cc2)cc1Nc1nccc(-c2cccnc2)n1` [Imatinib], the IC50 in experiment [1] was 0.27 µM.
Turning to `CCCNS(=O)(=O)Nc1ncnc(OCCOc2ncc(Br)cn2)c1-c1ccc(Br)cc1` [Macitentan, reference compound], in experiment [7], the “% reduction in RV hypertrophy” value was “trend” and the “Reduction in RVSP” value is listed as 19-25 mmHg. For the same compound, in [8], the “% reduction in RV hypertrophy” value is on record as “trend” and the “Reduction in RVSP” value is reported as 19-25 mmHg. Further, in [9] (setting [11]), the “% reduction in RV hypertrophy” value is “trend”. Further, the “lessening of right ventricular hypertrophy (Fulton Index)” value in experiment [9] (monocrotaline 40 mg/kg, antibody 25 mg/kg SC 2x/week, Macitentan 30 mg/kg P.O. daily, versus isotype control) is “failed to reduce”. Also, the “right ventricular systolic pressure elevation” value in experiment [9] (monocrotaline 40 mg/kg, antibody 25 mg/kg SC 2x/week, Macitentan 30 mg/kg P.O. daily, week 4) is “significantly reduced”. Further, in experiment [10] (setting [12]), the “Death # by day 35” value is recorded as 11, the “Survival rate by day 35” value is on record as 0%* and the “median survival” value came to 20 days. In addition, the survival entry in experiment [10] (monocrotaline 60 mg/kg, antibody 25 mg/kg 2 times a week from day 14, macitentan 30 mg/kg daily, day 35) is reported as “failed to prolong survival”.
For the compound “Sotatercept: ACVRIIa-Fc, vessel remodeling comparator drug”, the “Reduction in RVSP” value in experiment [9] (setting [11]) was 14 mmHg.

(Values after patent US20240425574A1, “ANTI-PDGF-B ANTIBODIES AND PHARMACEUTICAL COMPOSITION THEREOF” (Regeneron Pharmaceuticals, Inc., priority 2021, published 2024).)
